Reference: US6310095A, “Inhibitors of protein isoprenyl transferases” (University of Pittsburgh, priority 1998, dated 2001)
Structures can show the parent of a compound that is named as a salt.

These molecules were tested against T1, protein farnesyltransferase (Rattus norvegicus, UniProt Q02293+Q04631) (assay: in vitro inhibition of protein farnesyltransferase (scintillation proximity assay, biotin-K Ras B fragment)). Details: at 1 × 10^-6 M.
T1 construct: Rat brain protein farnesyltransferase activity is measured; from tissue; host or cells: rat brain; purified according to Reiss et al., Cell 62:81-88 (1990), steps one through three
Format: biochemical
Text: The ability of the compounds of the invention to inhibit protein farnesyltransferase or protein geranylgeranyltransferase can be measured according to the method of Moores, et al., J. Biol. Chem. 266: 14603 (1991) or the method of Vogt, et al., J. Biol. Chem. 270:660-664 (1995). In addition, procedures for determination of the inhibition of farnesylation of the oncogene protein Ras are described by Goldstein, et al., J. Biol. Chem., 266:15575-15578 (1991) and by Singh in U.S. Pat. No. 5,245,061.
In addition, in vitro inhibition of protein farnesyltransferase may be measured by the following procedure. Rat brain protein farnesyltransferase activity is measured using an Amersham Life Science commercial scintillation proximity assay kit and substituting a biotin-K Ras B fragment (biotin-[…]CO2 H), 0.1 mM final concentration, for the biotin-lamin substrate provided by Amersham. The enzyme is purified according to Reiss, Y., et al., Cell, 62: 81-88 (1990), utilizing steps one through three.
The % inhibition of protein farnesyltransferase was determined for representative compounds of the invention.

SMILES	% inhibition of farnesyltransferase [%]
CSCC[C@H](NC(=O)c1ccc(CCCCC2CCCCC2)cc1-c1ccccc1C)C(=O)O [Example 478]	98
CSCC[C@H](NC(=O)c1ccc(/C=C/c2cncnc2)cc1-c1ccccc1C)C(=O)O [Example 494]	96
CSCC[C@H](NC(=O)c1ccc(/C=C/c2cnccn2)cc1-c1ccccc1C)C(=O)O [Example 495]	95
CCOC[C@H](CC1CCCCC1)OCc1ccc(C(=O)N[C@@H](CCSC)C(=O)O)c(-c2ccccc2C)c1 [Example 525]	99
CSCC[C@H](NC(=O)c1ccc(CNC(CC2CCCCC2)C(O)C(O)CC(C)C)cc1-c1ccccc1C)C(=O)O (stereo partly drawn) [Example 529]	99
CSCC[C@H](NC(=O)c1ccc(COCc2ccoc2)cc1-c1ccccc1C)C(=O)O [Example 530]	94

Now from value to molecule:

% inhibition of farnesyltransferase [%]	SMILES
87	CSCC[C@H](NC(=O)c1ccc(C=CCCCc2ccccc2)cc1-c1ccccc1C)C(=O)O [Example 480]
93	CSCC[C@H](NC(=O)c1ccc(C=CCc2ccc3ccccc3c2)cc1-c1ccccc1C)C(=O)O [Example 496]
94	CSCC[C@H](NC(=O)c1ccc(Sc2ccc3ccccc3c2)cc1-c1ccccc1C)C(=O)O [Example 497]
98	CSCC[C@H](NC(=O)c1ccc(SCCc2ccccc2)cc1-c1ccccc1C)C(=O)O [Example 498]

Same assay, conditions: at 1 × 10^-6 M; read-out: % inhibition of farnesyltransferase

SMILES	inhibition at 1 µM [%]
CSCC[C@H](NC(=O)c1ccc(NCC(CO)CC2CCCCC2)cc1-c1ccccc1C)C(=O)O (stereo partly drawn) [Example 479, N-[4-N-(2-cyclohexylmethyl-3-hydroxypropyl)amino-2-(2-methylphenyl)benzoyl]methionine]	95
CSCC[C@H](NC(=O)c1ccc(NC(=O)c2cnccc2C(F)(F)F)cc1-c1ccccc1C)C(=O)O [Example 481, N-[4-N-(4-trifluoromethylnicotinoyl)amino-2-(2-methylphenyl)benzoyl]methionine lithium salt]	95
CSCC[C@H](NC(=O)c1ccc(NCCO)cc1-c1ccccc1)C(=O)O [Example 502, N-[4-N-2-hydroxyethylamino-2-phenylbenzoyl]methionine]	24
CSCC[C@H](NC(=O)c1ccc(NC(=O)[C@@H](N)COCc2ccccc2)cc1-c1ccccc1)C(=O)O [Example 503, N-[4-(N-2-amino-3-benzyloxypropionyl)amino-2-phenylbenzoyl]methionine]	57
CSCC[C@H](NC(=O)c1ccc(CN(CCO)c2ccccc2)cc1-c1ccccc1)C(=O)O [Example 505]	72
CSCC[C@H](NC(=O)c1ccc(CN(CC23CC4CC(CC(C4)C2)C3)c2ccccc2)cc1-c1ccccc1C)C(=O)O [Example 510]	84
CSCC[C@H](NC(=O)c1ccc(CNC(CC2CCCCC2)C(O)C(O)CC(C)C)cc1-c1ccccc1C)C(=O)O (stereo partly drawn) [Example 528]	99

More lines, now with the values ahead:

inhibition at 1 µM [%]	SMILES
21	CSCC[C@H](NC(=O)c1ccc(NCC(CO)(Cc2ccccc2)Cc2ccccc2)cc1-c1ccccc1C)C(=O)O [Example 475, N-[4-N-(2,2-dibenzyl-3-hydroxypropyl)amino-2-(2-methylphenyl)benzoyl]methionine sodium salt]
91	CSCC[C@H](NC(=O)c1ccc(NCC(CO)Cc2ccccc2)cc1-c1ccccc1C)C(=O)O (stereo partly drawn) [Example 476, N-[4-N-(2-benzyl-3-hydroxypropyl)amino-2-(2-methylphenyl)benzoyl]methioninesodium salt]
90	CSCC[C@H](NC(=O)c1ccc(CN(Cc2ccccc2)Cc2ccco2)cc1-c1ccccc1C)C(=O)O [Example 504, N-[4-N-(furan-2-ylmethyl)-N-benzylaminomethyl-2-(2-methylphenyl)benzoyl]methionine lithium salt]
96	CSCC[C@H](NC(=O)c1ccc(CN(CCc2ccccc2)c2ccccc2)cc1-c1ccccc1C)C(=O)O [Example 507]
95	CSCC[C@H](NC(=O)c1ccc(CN(CCCc2ccccc2)c2ccccc2)cc1-c1ccccc1C)C(=O)O [Example 508]
77	CSCC[C@H](NC(=O)c1ccc(CN(CC(c2ccccc2)c2ccccc2)c2ccccc2)cc1-c1ccccc1C)C(=O)O [Example 509]
94	CSCC[C@H](NC(=O)c1ccc(CN(Cc2ccccc2)Cc2ccccc2)cc1-c1ccccc1C)C(=O)O [Example 512, N-[4-N,N-dibenzylaminomethyl-2-(2-methylphenyl)benzoyl]methionine lithium salt]
96	CSCC[C@H](NC(=O)c1ccc(CN(CCc2ccccc2)Cc2ccccc2)cc1-c1ccccc1C)C(=O)O [Example 513, N-[4-N-(2-phenylethyl)-N-benzylaminomethyl-2-(2-methylphenyl)benzoyl]methionine lithium salt]
94	CSCC[C@H](NC(=O)c1ccc(CN(Cc2ccccc2)Cc2cccc(Oc3ccccc3)c2)cc1-c1ccccc1C)C(=O)O [Example 514, N-[4-N-(3-phenoxybenzyl)-N-benzylaminomethyl-2-(2-methylphenyl)benzoyl]methionine lithium salt]
72	CSCC[C@H](NC(=O)c1ccc(CN(CCO)Cc2ccccc2)cc1-c1ccccc1)C(=O)O [Example 515, N-[4-N-(2-hydroxyethyl)-N-benzylaminomethyl-2-phenylbenzoyl]methionine lithium salt]
95	CSCC[C@H](NC(=O)c1ccc(CN(C)CCc2ccccc2)cc1-c1ccccc1C)C(=O)O [Example 516, N-[4-N-methyl-N-(2-phenyethyl)aminomethyl-2-(2-methylphenyl)benzoyl]methionine lithium salt]

Same assay, conditions: at 1 × 10^-7 M

SMILES	% inhibition of farnesyltransferase [%]
CSCC[C@H](NC(=O)c1ccc(C#Cc2cncnc2)cc1-c1ccccc1C)C(=O)[O-].[Li+] [Example 493]	51
C=C(C)C1CC=C(COCc2ccc(C(=O)N[C@@H](CCSC)C(=O)O)c(-c3ccccc3C)c2)CC1 (stereo partly drawn) [Example 521]	94
CSCC[C@H](NC(=O)c1ccc(COC(Cc2ccccc2)Cc2ccccc2)cc1-c1ccccc1C)C(=O)[O-].[Li+] [Example 522]	93
CSCC[C@H](NC(=O)c1ccc(COCCc2ccco2)cc1-c1ccccc1C)C(=O)[O-].[Li+] [Example 531]	74
CSCC[C@H](NC(=O)c1ccc(COCc2ccc(C)o2)cc1-c1ccccc1C)C(=O)O [Example 532]	88

Same assay, conditions: at 1 × 10^-7 M; read-out: % inhibition of farnesyltransferase

SMILES	inhibition at 0.1 µM [%]
CSCC[C@H](NC(=O)c1ccc(CN(CCC23CC4CC(CC(C4)C2)C3)c2ccccc2)cc1-c1ccccc1C)C(=O)O [Example 511]	82
CSCC[C@H](NC(=O)c1ccc(CN[C@H](CO)C2CCCCC2)cc1-c1ccccc1C)C(=O)O [Example 520, N-[4-N-(2-cyclohexyl-1-ethan-1-ol-2-yl)aminomethyl-2-(2-methylphenyl)benzoyl]methionine lithium salt]	97
CSCC[C@H](NC(=O)c1ccc(CNC(CC2CCCCC2)CC2CCCCC2)cc1-c1ccccc1C)C(=O)O [Example 524, N-[4-N-(1,3-dicyclohexylpropan-2-yl)aminomethyl-2-(2-methylphenyl)benzoyl]methionine lithium salt]	99
CSCC[C@H](NC(=O)c1ccc(CN[C@H](/C=C\CC(C)C)CC2CCCCC2)cc1-c1ccccc1C)C(=O)O [Example 526, N-[4-N-(1-Cyclohexyl-6-methylhept-3-en-2-yl)aminomethyl-2-(2-methylphenyl)benzoyl]methionine lithium salt]	96
CSCC[C@H](NC(=O)c1ccc(CN[C@H](CCCC(C)C)CC2CCCCC2)cc1-c1ccccc1C)C(=O)O [Example 527, N-[4-N-(1-Cyclohexyl-6-methylheptan-2-yl)aminomethyl-2-(2-methylphenyl)benzoyl]methionine lithium salt]	97

Other lines, results leading:

inhibition at 0.1 µM [%]	SMILES
89	CSCC[C@H](NC(=O)c1ccc(CNCCc2c[nH]c3ccccc23)cc1-c1ccccc1C)C(=O)O [Example 519, N-[4-N-(2-indol-3-ylethyl)aminomethyl-2-(2-methylphenyl)benzoyl]methionine lithium salt]
97	CSCC[C@H](NC(=O)c1ccc(CNC(Cc2ccccc2)Cc2ccccc2)cc1-c1ccccc1C)C(=O)O [Example 523, N-[4-N-(1,3-diphenylpropan-2-yl)aminomethyl-2-(2-methylphenyl)benzoyl]methionine lithium salt]

Same assay, conditions: at 1 × 10^-8 M; read-out: % inhibition of farnesyltransferase

SMILES	inhibition at 0.01 µM [%]
CSCC[C@H](NC(=O)c1ccc(CN(Cc2ccccc2)c2cnccn2)cc1-c1ccccc1C)C(=O)O [Example 517, N-[4-N-benzyl-N-pyrazin-2-ylaminomethyl-2-(2-methylphenyl)benzoyl]methionine lithium salt]	92
CSCC[C@H](NC(=O)c1ccc(CN(CCc2ccccc2)c2cncnc2)cc1-c1ccccc1C)C(=O)O [Example 518, N-[4-N-(2-phenyethyl)-N-pyrimidin-5-ylaminomethyl-2-(2-methylphenyl)benzoyl]methionine lithium salt]	90
